The values below come from patent US10093938B2, “Regulated switch for gene expression” (The Johns Hopkins University, priority 2014, dated 2018).

Holding throughout (format): cell-based, Saccharomyces cerevisiae
Test [1] has as its system cam-TA. Kind of test: camphor-Off system with ADE2 reporter, growth on SC-Ade. The text has this:
FIG. 4. […] The cells were 10-fold diluted in across each row.
Another gene ADE2 (SEQ ID No. 10) was used to further evaluate the camphor-Off system. Specifically, we investigated availability of the system to complement the adenine-auxotrophy in a camphor-dependent manner. […] On the other hand, another strain camA-TA, which had cam-TA differently from camA-EmV, grew in […] SC-Ade media (FIG. 4B). […] The reversion frequency is approximately 10^−3. The behavior of each strain was thoroughly consistent with the schematic model of the camphor-system (FIG. 2).

The target in the next test is T1, tTA (TetR-VP16 fusion) (Escherichia coli, UniProt P04483).
T1 construct: expressed in transfected cells; host or cells: Saccharomyces cerevisiae strain BY-TeCaOFF (integrated pSIB527, CMV promoter)
Kind of test: Orthogonality: Tet-Off GFP reporter in strain BY-TeCaOFF (microscopy). The following applies: 25 μM, 1 day in SC medium. The text has this: (§1) FIG. 6. Independent regulation of fluorescent reporters, RFP and GFP, with camphor-Off and Tet-Off systems. (A) pSIB859 can be used for integrating the camphor-Off system at a single transformation. Its derivative plasmid pSIB872 carries mCherry as a reporter. (B) Plasmid pSIB498 for the Tet-Off system. Its derivative pSIB527 carries gfp as a reporter. (C)-(F) Strain BY-TeCaOFF carries both pSIB872 and pSIB527. Cell images in SC medium (C), SC with camphor (D), SC with Dox (E), and SC with camphor and Dox. The top, middle, and bottom rows represent images of RFP, GFP, and DIC, respectively. Strain BY-TeCaOFF was grown for 1 day in SC medium with the indicated compounds.
(§2) The experiments in this section were performed to examine whether the camphor-Off system was orthogonal/compatible with the Tet-Off system in a yeast strain. Firstly, we developed new two acceptor vectors: one was used for the camphor-Off switch and the other was the Tet-Off switch. […]
(§3) Cells were viewed with an Axioskop-2 microscope (Carl Zeiss, Oberkochen, Germany) equipped with an X-cite120 light source (ExFo, Ontario, Canada) and a fluorescence filter set. A 100× objective and AxioVision software were used to capture fluorescence and differential interference contrast (DIC) images.

For test [2], the system named is cam-TA. Kind of test: camphor-Off switch, GFP reporter (flow cytometry) in strain camG-TA. As for the experimental part: To evaluate the performance of the system, we used GFP as a reporter.
However, another strain camG-TA that was constructed by introducing the […] expression cassette into the cam-TA strain produced significant amounts of GFP (FIG. 3C). From this, we conclude that cam-TA binds to camO and can activate the transcription of the reporter gene gfp.
Subsequently, the kinetics of the system was investigated using the camG-TA strain.
Cellular fluorescence from GFP was determined using a LSRII flow cytometer (Becton Dickinson, Franklin Lakes, N.J.) equipped with 488-nm argon ion laser (blue laser) and a 530/30-filter. All samples were suspended in sterile water, and 10,000 cells were analyzed per sample. Data acquisition and analysis were performed using FACSDiva software (Becton Dickinson) and FlowJo (Tree Star, Ashland, Oreg.).
(In general: Flow cytometry measures light scatter and fluorescence of single cells or particles in a stream.)

Test [3] relates to cam-TA. The note with it: BY-TeCaOFF.
Text: as §1, §2, §3

cam-TA, sequence (as listed by the source): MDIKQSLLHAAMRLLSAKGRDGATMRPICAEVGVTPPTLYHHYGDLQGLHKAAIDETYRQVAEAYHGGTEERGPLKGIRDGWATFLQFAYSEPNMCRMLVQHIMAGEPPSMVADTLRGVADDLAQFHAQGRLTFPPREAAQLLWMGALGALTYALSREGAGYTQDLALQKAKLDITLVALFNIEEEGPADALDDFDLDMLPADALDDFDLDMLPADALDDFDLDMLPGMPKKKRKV

Take D-Camphor: the “growth of strain camA-TA on SC-Ade media that contained camphor” value in the test on cam-TA [1] (100 μM camphor, 1 day at 30° C., camPr-ADE2) is “hardly proliferated at all”. The reversion frequency entry in the test on cam-TA [1] (camA-TA on SC-Ade media containing camphor) was “approximately 10^−3”. The “the other fluorescence (GFP, Tet-Off) on addition of camphor alone” value at tTA (TetR-VP16 fusion) was “detected robustly”. Moreover, the “effective concentration for the camphor-Off system” value in the test on cam-TA [2] (GFP reporter, camG-TA strain) was 25 µM. Further, the “camphor concentration in the presence of which the GFP signal drastically decreased” value with cam-TA [2] (camG-TA strain in SC medium, camPr-gfp reporter) is at least 25 µM. Besides, the “period over which GFP intensity went to almost the same level as that of BY4741” value in the test with cam-TA [2] (camG-TA strain in the presence of camphor) came to 7 h. The “corresponding reporter protein (mCherry, camphor-Off) on addition of the drug” value in the test on cam-TA [3] (25 μM, 1 day in SC medium) is “drastic decrease”. For the same substance, in the test with cam-TA [3] (camphor and Dox 25 μM each), the “expression of mCherry reporter when both camphor and Dox were supplied” value was “repressed”.
